Tests used:
[1] = system: BS-24-1: mouse lymphoma cell; experiment: Cell death / anti-proliferative assay (MTT/XTT) in BS-24-1 cells; format: cell-based; conditions: BS-24-1, 4.8e^−4 μM, 2 h
Description: (§1) The following cell lines were used in this study: (1) BS-24-1: mouse lymphoma cell; (2) MoFir: Epstein-Barr virus transformed human B lymphocytes generated in the laboratory by transformation of human B cell from an anonymous donor (see below); (3) FB: normal human skin fibroblasts.
(§2) Cell death was assessed by incubation of cells with tetrazolium salt XTT. The production of formazan can be monitored using an ELISA reader at a wavelength of 450 nm. Cytotoxicity in compound-treated culture was expressed as follows: % survival=100×(absorbance of compound-treated cell/absorbance of ethanol-treated cells).
In order to investigate whether C. gikadensis extracts had anti-proliferative effects against tumor cell lines, an MTT (3-(4,5-Dimethylthiazol-2-yl)-2,5-diphenyltetrazolium bromide) assay was used. The effect of this extract was assessed in mouse (BS-24-1) and human (MoFir) cell lines using ethanol (EtOH)-based stem extracts. The concentration of cells was 1.0×10^6/mL.

[2] = system: MoFir: Epstein-Barr virus transformed human B lymphocytes; experiment: Cell death / anti-proliferative assay (MTT/XTT) in MoFir cells; format: cell-based; conditions: 4.8e^−4 μM, 2 h
Description: as §1
To establish the MoFir cells, B cells from whole blood were prepared by Ficoll -Hypaque density gradient centrifugation. The cells were infected with the B95-8 strain of Epstein-Barr virus. RPMI medium (Biological Industries Beit Haemek) was used for cell culture. The EBV B lymphocyte cell line was maintained in RPMI supplemented with 10% FBS, 100 U/mL penicillin and […] streptomycin. The culture was maintained at 37° C. in 5% CO2 atmosphere. […]
as §2
In order to investigate whether C. gikadensis extracts had anti-proliferative effects against tumor cell lines, an MTT (3-(4,5-Dimethylthiazol-2-yl)-2,5-diphenyltetrazolium bromide) assay was used. The effect of this extract was assessed in mouse (BS-24-1) and human (MoFir) cell lines using ethanol (EtOH)-based stem extracts. […]

[3] = system: caspase-3; experiment: Caspase-3 cellular activity assay, BS-24-1 cells; format: cell-based, mouse
[4] = system: caspase-3; experiment: Caspase-3 cellular activity assay, MoFir cells; format: cell-based, human
Description: FIG. 4. is a bar graph showing the apoptogenic effects of β-Caryophyllene on two tumor cell lines. Enzymatic activity of different cell lines incubated with β-Caryophyllene (2.4e^−4 μM) for 2 h. X axis represents the time of the enzymatic reaction in vitro in minutes.
FIG. 5. is a bar graph showing the apoptogenic effects of β-Caryophyllene on two tumor cell lines. […] Measurements were taken following 1020 min of enzymatic reaction in vitro. Pre-incubation with caspase-3 inhibitor (DEVD-CHO) eliminated any development of caspase-3 activity.
Caspase-3 cellular activity assay was carried out according to the manufacturer's instructions. For measuring specific inhibition by Ac-DEVD-CHO, cell extracts were pre-incubated with the inhibitor (0.05 μM) for 10 minutes before the addition of the substrate. […] Cellular extracts were prepared and then caspase-3 activity was measured.

[5] = system: BS-24-1 cells; experiment: DNA ladder analysis (apoptosis), BS-24-1 cells; format: cell-based, mouse; conditions: BS-24-1, 2-h treatment
Description: FIG. 6. is a gel micrograph showing the DNA ladder effect (induction of apoptosis) of different compositions. BS-24-1 cells (1,000,000/mL) were incubated with C. gileadensis stem and leaf extracts (6 μl/mL) for 17 h. DNA was separated and analyzed on agarose gel. Lanes 1-7 and 11, H2O based stem extract. Lanes 8-10, H2O based leaf extract. Lanes 12-18 and 22, ethanol based stem extract. Lanes 19-21, ethanol based leaf extract. Lanes 23 and 24 Control cells treated with ethanol (0.05%) and water.
FIG. 8. is a gel micrograph showing the DNA ladder effect (induction of apoptosis) of different compositions. BS-24-1 cells were incubated with C. gileadensis essential oil for 24 h. DNA was separated and analyzed on agarose gel. Lane 1, untreated cells with ethanol (0.05%) alone. Lane 2, cells incubation with 0.625 μl/mL essential oil. Lane 3, cells incubation with 1.25 μl/mL essential oil.
FIG. 9. is a gel micrograph showing the DNA ladder effect (induction of apoptosis) of β-Caryophyllene. Fragmentation of DNA in the presence of β-Caryophyllene. BS-24-1 cells were incubated in the presence of β-Caryophyllene in three different concentrations and two incubation time Lane 1, untreated cells with ethanol (0.05%) alone. Lane 2, cells incubated for 24 h with […] Lane 3, cells incubated for 2 h with 9.6 μM β-caryophyllene. […]

[6] = system: FB: normal human skin fibroblasts; experiment: DNA ladder analysis (apoptosis), normal FB cells; format: cell-based; conditions: summary statements
Description: FIG. 7. is a gel micrograph showing the DNA ladder effect (induction of apoptosis) of different compositions. MoFir and normal FB cells were incubated with C. gileadensis extract (2.5 μl/mL) for 24 h. DNA was separated and analyzed on agarose gel. Lane 1 and 2, ethanol based stem extract Lane 3-5, ethanol based leaf extract. Lane 6 control cells treated with ethanol (0.05%).
DNA ladder analysis was performed as previously described Ofir R. et al., (1999) (Ofir R, Zhang L-, Adams J M. Interference with gene expression induces rapid apoptosisin p53-null T lymphoma cells. Cell Death and Differentiation 1999; 6: 1216-1221).

[7] = system: EBV-producing B95-8 cells; experiment: Survival of EBV-producing B95-8 cells; format: cell-based; conditions: increasing concentration
Description: Epstein-Barr virus strain B95-8 can immortalize human B lymphocytes. B95-8 is a cell line that produces Epstein-Barr virus (EBV).

[8] = target: T1, Topoisomerase I (Homo sapiens, UniProt P11387); experiment: Topoisomerase I activity; format: biochemical
T1 sequence (P11387 1-765): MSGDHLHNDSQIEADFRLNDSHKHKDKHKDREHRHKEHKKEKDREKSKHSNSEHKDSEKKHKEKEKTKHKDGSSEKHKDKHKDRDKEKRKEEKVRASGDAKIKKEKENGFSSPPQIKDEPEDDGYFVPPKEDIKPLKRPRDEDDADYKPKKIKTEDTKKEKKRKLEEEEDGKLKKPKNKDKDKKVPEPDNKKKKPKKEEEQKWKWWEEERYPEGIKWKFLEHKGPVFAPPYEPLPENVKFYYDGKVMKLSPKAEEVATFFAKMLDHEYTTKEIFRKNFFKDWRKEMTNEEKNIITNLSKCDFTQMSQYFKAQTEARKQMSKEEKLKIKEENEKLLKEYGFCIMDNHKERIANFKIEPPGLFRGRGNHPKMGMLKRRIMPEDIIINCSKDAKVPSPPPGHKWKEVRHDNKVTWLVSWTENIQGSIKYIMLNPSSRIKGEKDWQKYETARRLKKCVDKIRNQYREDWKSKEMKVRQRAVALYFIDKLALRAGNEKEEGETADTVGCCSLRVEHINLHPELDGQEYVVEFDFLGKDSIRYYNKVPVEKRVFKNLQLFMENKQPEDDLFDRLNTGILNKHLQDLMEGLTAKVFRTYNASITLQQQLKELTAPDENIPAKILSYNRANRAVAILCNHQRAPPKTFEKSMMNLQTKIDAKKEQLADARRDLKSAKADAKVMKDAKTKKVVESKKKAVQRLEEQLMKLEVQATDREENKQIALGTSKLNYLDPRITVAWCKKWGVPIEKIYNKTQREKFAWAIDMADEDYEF
Description: Topoisomerase I introduces a nick in the DNA backbone allowing the rotation of one DNA strand around the second DNA strand. The DNA break is extremely transient and is re-ligated almost immediately. When an inhibitor of Topoisomerase I is present, it binds to the Topoisomerase I-nicked DNA complex or to the Topoisomerase I itself and this prevents the re-ligation of the nicked strand or the initial nick and rotation, respectively. Topoisomerase I and II activities are required for Epstein-Barr Virus replication.

[9] = system: Epstein-Barr virus; experiment: In vivo EBV animal model (humanized mouse or rabbit); conditions: 5.0, 10 or 20 mg/kg, 4 consecutive days, i.p. or within food or drinking water
Description: Studies evaluating the effect of C. gileadensis extract and β-caryophyllene in an in vivo animal model are performed using the humanized mouse animal model described in Sato et al., 2011 (“A novel animal model of Epstein-Barr virus-associated hemophagocytic lymphohistiocytosis in humanized mice” Blood, 2011 May 26; 117(21):5663-73, incorporated herein by reference in its entirety) or using the rabbit model described in Takashima, 2008 (“A new animal model for primary and persistent Epstein-Barr virus infection: human EBV-infected rabbit characteristics determined using sequential imaging and pathological analysis” J Med. Virol. 2008 March; 80(3):455-66, incorporated herein by reference in its entirety). C. gileadensis extract and β-caryophyllene are supplied in balanced salt solution containing 12% Tween 80 (pH 7.4) and diluted immediately before use in appropriate concentrations. Doses of 5.0, 10 or 20 mg/kg are administered for 4 consecutive days to control and EBV groups (eight animals/group) by i.p. injection of 0.1 ml per mouse or within the food or drinking water. Both C. gileadensis extract and β-caryophyllene are found to prevent EBV-induced death, viremia, leukocytosis, IFN-γ cytokinenemia, normocytic anemia, and thrombocytopenia, and increase survival time

[10] = target: cannabinoid receptor type-2 (Homo sapiens, UniProt P34972); conditions: background statement; cited from earlier work
[11] = target: cannabinoid receptor type-1 (CB 1) (Homo sapiens, UniProt P21554); conditions: background statement; cited from earlier work
Chain of cannabinoid receptor type-1 (CB 1) (P21554 whole entry, species assumed): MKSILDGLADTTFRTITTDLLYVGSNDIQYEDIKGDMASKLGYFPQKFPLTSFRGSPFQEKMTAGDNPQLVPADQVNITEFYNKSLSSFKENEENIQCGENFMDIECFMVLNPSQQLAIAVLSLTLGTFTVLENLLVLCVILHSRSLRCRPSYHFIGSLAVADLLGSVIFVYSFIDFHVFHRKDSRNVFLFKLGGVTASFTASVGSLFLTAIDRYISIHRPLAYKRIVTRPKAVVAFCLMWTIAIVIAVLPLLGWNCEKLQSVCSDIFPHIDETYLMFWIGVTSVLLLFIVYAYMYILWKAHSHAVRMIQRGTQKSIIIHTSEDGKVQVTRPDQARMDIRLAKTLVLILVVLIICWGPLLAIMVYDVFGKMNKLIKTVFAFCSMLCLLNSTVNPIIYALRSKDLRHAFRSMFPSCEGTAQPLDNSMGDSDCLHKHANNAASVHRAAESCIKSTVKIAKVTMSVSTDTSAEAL

Chain of cannabinoid receptor type-2 (P34972 whole entry): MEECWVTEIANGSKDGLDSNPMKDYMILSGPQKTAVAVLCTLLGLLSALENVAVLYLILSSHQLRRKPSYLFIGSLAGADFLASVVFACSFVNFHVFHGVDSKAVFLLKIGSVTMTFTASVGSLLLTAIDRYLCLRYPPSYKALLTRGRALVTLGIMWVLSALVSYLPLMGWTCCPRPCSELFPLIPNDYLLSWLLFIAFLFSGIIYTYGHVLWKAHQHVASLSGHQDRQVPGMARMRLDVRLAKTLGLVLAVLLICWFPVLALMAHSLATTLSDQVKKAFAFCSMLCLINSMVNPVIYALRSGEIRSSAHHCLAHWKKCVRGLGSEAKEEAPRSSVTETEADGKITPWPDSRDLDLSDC

Compound | cell killing [1] | cell killing [2] | enzymatic activity of caspase-3 ([3]; BS-24-1, 2.4e^−4 μM, 4 h incubation) | induction of caspase-3 enzymatic activity compared to reference compounds STS and citral ([3]; data not shown, cell line not stated) | enzymatic activity of caspase-3 ([4]; 2.4e^−4 μM) | DNA ladder (DNA fragmentation) [5] | apoptosis induction in normal cells (FB) [6] | survival of EBV-producing B95-8 cells [7] | activity of Topoisomerase I [8] | EBV-induced death, viremia, leukocytosis, IFN-γ cytokinenemia, normocytic anemia, and thrombocytopenia [9] | survival time [9] | binding to cannabinoid receptor type-2 [10] | binding to cannabinoid receptor type-1 (CB 1) [11] | beta-caryophyllene induced increase of caspase-3 activity after inhibitor pretreatment ([3]; BS-24-1, pretreatment with inhibitor (0.05 μM, 10 minutes)) | beta-caryophyllene induced increase of caspase-3 activity after inhibitor pretreatment ([4]; pretreatment with inhibitor (0.05 μM, 10 minutes))
C=C1CC/C=C(\C)CC[C@@H]2[C@@H]1CC2(C)C [Beta-caryophyllene, trans-(1R,9S)-8-Methylene-4,11,11-trimethylbicyclo[7.2.0]undec-4-ene] | 85-90% | 85-90% | activation of the enzymatic activity of caspase-3 | stronger than both | activation of the enzymatic activity of caspase-3 | repeated | not in normal cells | decreases the survival | inhibits | prevent | increase | selectively bind | does not bind | – | –
Ac-DEVD-CHO [reference compound] | – | – | – | – | – | – | – | – | – | – | – | – | – | blocked | blocked
